According to patent US7285557B2, “Pyrimidinones as melanin concentrating hormone receptor 1” (SmithKline Beecham P.L.C., priority 2001, dated 2007):

Target: T1, human melanin-concentrating hormone one receptor (Homo sapiens, UniProt Q99705)
T1 construct: expressed in transfected cells; host or cells: CHO (CHO-K1) cells stably expressing an elkgal4-luc+ reporter gene
Assay: Functional antagonist assay of MCHR1 (elkgal4-luc+ luciferase reporter gene in CHO cells, inhibition of MCH EC80 response)
Format: cell-based
Details: MCH1R-elkgal4-luc+ CHO cells, luciferase readout, read-out: MCHR1 pIC50 (converted)
Description: Chinese hamster ovary (CHO-K1) cells were obtained from the American Type Culture Collection (Rockville, Md.).
CHO cells, stably expressing an elkgal4-luc^+ reporter gene (host) were transfected by electroporation with the human melanin-concentrating hormone one receptor. A stable clone was selected using G418 for functional antagonist assays. MCH1R-elkgal4-luc^+ CHO cells were propagated in complete medium (DMEM/F12, 5% FBS, 2 mM I-glutamine) in T225 flasks. Forty-eight hours prior to assay, cells were harvested with 2 mL of 0.05% trypsin, washed with complete medium and plated at a concentration of 10,000 cells/well in complete medium in black 96-well plates. Eighteen hours prior to the assay, the medium was removed from the cells by aspiration and replaced with 90 μl/well of serum-free DMEM/F12. […] Plates were sealed and subjected to dark adaptation at room temperature for 10 minutes before luciferase activity was quantitated on a TopCount™ microplate scintillation counter (Packard) using 3 seconds/well count time. The ability of the antagonist to inhibit the MCH EC80 response was quantified by non-linear regression analysis using a curve-fitting program based in Microsoft ExCel. Specificity of the MCHR1 response was determined using the same protocol by measuring the ability of said antagonists to inhibit an EC80 thrombin response (endogenous) in the host cells.

T1 sequence (Q99705 whole entry, the tested form may be a part): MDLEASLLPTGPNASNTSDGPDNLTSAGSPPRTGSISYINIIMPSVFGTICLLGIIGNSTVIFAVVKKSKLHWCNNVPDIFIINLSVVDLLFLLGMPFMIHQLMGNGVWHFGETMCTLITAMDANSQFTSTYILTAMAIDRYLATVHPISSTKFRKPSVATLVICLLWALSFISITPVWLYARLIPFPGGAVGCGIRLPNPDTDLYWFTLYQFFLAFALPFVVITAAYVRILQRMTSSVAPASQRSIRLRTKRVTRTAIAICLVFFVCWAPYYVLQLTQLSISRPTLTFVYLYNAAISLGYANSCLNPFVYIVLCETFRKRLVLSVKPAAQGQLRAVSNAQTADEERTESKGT

Compound | IC50 [µM]
COc1cc(-n2cnc3cc(-c4ccccc4)ccc3c2=O)ccc1OCCN1CCCCC1 [Example H1, 3-{3-methoxy-4-[2-(1-piperidinyl)ethoxy]phenyl}-7-phenyl-4(3H)-quinazolinone] | 0.0794
COc1cc(-n2cnc3cc(-c4ccc(C(F)(F)F)cc4)ccc3c2=O)ccc1OCCN1CCCC1 [Example J1, 3-{3-methoxy-4-[2-(1-pyrrolidinyl)ethoxy]phenyl}-7-[4-(trifluoromethyl)phenyl]-4(3H)-quinazolinone] | 0.0631
